# Experimental data as given in paper PMC4040332 (ChemMedChem, 2013).
# Assays:
# GR from B. subtilis = GR from B. subtilis (Bacillus subtilis, UniProt P94556)
# [1] = test system: GR from F. tularensis (MurI); assay type: biochemical; settings: Figure 1
# [2] = test system: GR from B. anthracis (RacE2); assay type: biochemical; settings: RacE2, Figure 1
# [3] = test system: GR from B. anthracis (RacE1); assay type: biochemical; settings: RacE1, Figure 1
# B. subtilis DB104 = test: Inhibition of bacterial growth; settings: Bacillus subtilis, DB104, 24 h, read-out: MIC50 B. subtilis
# Sequence of GR from B. subtilis (P94556 whole entry): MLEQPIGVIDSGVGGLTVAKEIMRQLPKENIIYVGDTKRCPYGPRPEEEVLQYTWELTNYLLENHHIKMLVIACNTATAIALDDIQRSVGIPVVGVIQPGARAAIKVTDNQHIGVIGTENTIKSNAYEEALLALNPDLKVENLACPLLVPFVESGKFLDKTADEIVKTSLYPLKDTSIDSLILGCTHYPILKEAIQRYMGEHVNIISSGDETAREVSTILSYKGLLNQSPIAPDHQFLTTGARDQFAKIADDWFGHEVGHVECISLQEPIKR
smiles,measurement,setting,value
"O=S(=O)(O)c1nc2ccccc2[nH]1 [Compound 2, 1H-benzimidazole-2-sulfonic acid]",LE (ligand efficiency),"GR from B. subtilis; Ki converted to binding energy, divided by number of non-hydrogen atoms",0.53 kcal/mol/atom
same,LiPE (lipophilic efficiency),GR from B. subtilis; from log(Ki) and logP calculated with MarvinSketch,5.3
same,potency compared with GR from B. subtilis,[1],equal potency
same,potency compared with GR from B. subtilis,[2],equal potency
same,potency compared with GR from B. subtilis,[3],equal potency
same,MIC50,B. subtilis DB104,720 ± 60 µg/mL
